Consider eleven compounds from patent US9624241B2 (Incyte Corporation, priority 2013, dated 2017).

One assay deals with BRD4-BD1 (Homo sapiens (Human), UniProt O60885). The assay can be described thus: BRD4 AlphaScreen Assay (Example A2), BRD4-BD1. It counts as binding. The following applies: Assay A2, AlphaScreen, BRD4-BD1; read-out: BRD4 BD-1 enzyme IC50. Put shortly: (§1)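 Displacement of 50 nM biotinylated tetra-acetylated histone H4 peptide from BRD4 BD1 or BD2 (<1 nM) in Tris-HCl pH 7.5 buffer with DTT. Inhibitors serially diluted in DMSO, added first, then incubated 75 min in the dark at room temperature before AlphaScreen read. IC50 fitted from percent control activity versus log concentration.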
Background: In Alpha technology, singlet oxygen from a donor bead excites a nearby acceptor bead.

For another assay, the target named is BRD4-BD2 (Homo sapiens (Human), UniProt O60885). Briefly: BRD4 AlphaScreen Assay (Example A2), BRD4-BD2. It counts as binding. The following applies: Assay A2, AlphaScreen, BRD4-BD2; read-out: BRD4 BD-2 enzyme IC50. Put shortly:
as §1

Each structure is given as a SMILES string.

For the compound `Cc1noc(C)c1-c1ccc2[nH]c(=O)n3c2c1OCC3c1cccnc1C#N` (racemic) [Example 126, 3-[7-(3,5-Dimethylisoxazol-4-yl)-2-oxo-1,2,4,5-tetrahydroimidazo[1,5,4-de][1,4]benzoxazin-4-yl]pyridine-2-carbonitrile], the half-maximal inhibitory concentration (IC50) (commonly the concentration needed to halve the response being measured) on BRD4-BD1 is 0.1 to 1 µM; on BRD4-BD2 it was under 0.1 µM.
Taken in the same sequence, the figures for `Cc1noc(C)c1-c1cc(Cl)c2[nH]c(=O)n3c2c1OCC3c1ccccn1` (single isomer, unassigned) [Example 266B, 9-chloro-7-(3,5-dimethylisoxazol-4-yl)-4-pyridin-2-yl-4,5-dihydroimidazo[1,5,4-de][1,4]benzoxazin-2(1H)-one] were 1 to 10 µM and 0.1 to 1 µM.
On the same counts, the results for `CC(=O)N1CCC=C(c2nc3ccc(-c4c(C)noc4C)c4c3n2[C@@H](c2ccccn2)CO4)C1` [Example 116, (4S)-2-(1-acetyl-1,2,5,6-tetrahydropyridin-3-yl)-7-(3,5-dimethylisoxazol-4-yl)-4-pyridin-2-yl-4,5-dihydroimidazo[1,5,4-de][1,4]benzoxazine] are under 0.1 µM and under 0.1 µM.
Taken in the same sequence, the figures for `COCC(=O)NCc1cc(-c2c(C)noc2C)c2c3c1[nH]c(=O)n3[C@@H](c1ccccn1)CO2` [Example 140, N-{[(4S)-7-(3,5-Dimethylisoxazol-4-yl)-2-oxo-4-pyridin-2-yl-1,2,4,5-tetrahydroimidazo[1,5,4-de][1,4]benzoxazin-9-yl]methyl}-2-methoxyacetamide] were under 0.1 µM and under 0.1 µM.
As to `Cc1noc(C)c1-c1ccc2nc([C@@H](O)CO)n3c2c1OC[C@@H]3c1ccccn1` [Example 89, (1R)-1-[(4S)-7-(3,5-Dimethylisoxazol-4-yl)-4-pyridin-2-yl-4,5-dihydroimidazo[1,5,4-de][1,4]benzoxazin-2-yl]ethane-1,2-diol], the IC50 at BRD4-BD1 and at BRD4-BD2 was under 0.1 µM in each case.
With `Cc1noc(C)c1-c1cc(C#N)c2[nH]c(=O)n3c2c1OCC3c1ccccn1` (stereo not shown) [Example 269B, 7-(3,5-dimethylisoxazol-4-yl)-2-oxo-4-pyridin-2-yl-1,2,4,5-tetrahydroimidazo[1,5,4-de][1,4]benzoxazine-9-carbonitrile], the IC50 at BRD4-BD1 and on BRD4-BD2 was 1 to 10 µM in each case.
Regarding `Cc1noc(C)c1-c1cc(-c2cccnc2O)c2[nH]c(=O)n3c2c1OC[C@@H]3c1ccccn1` [Example 261, (4S)-7-(3,5-dimethylisoxazol-4-yl)-9-(2-hydroxypyridin-3-yl)-4-pyridin-2-yl-4,5-dihydroimidazo[1,5,4-de][1,4]benzoxazin-2(1H)-one], the IC50 at BRD4-BD1 is 0.1 to 1 µM; at BRD4-BD2 it was under 0.1 µM.
With `Cc1noc(C)c1-c1ccc2c3c1CCC(c1ccccc1)n3c(=O)n2C` (racemic) [Example 121, 7-(3,5-Dimethylisoxazol-4-yl)-1-methyl-4-phenyl-5,6-dihydro-4H-imidazo[4,5,1-ij]quinolin-2(1H)-one], the IC50 at BRD4-BD1 is 0.1 to 1 µM; on BRD4-BD2 it was under 0.1 µM.
Turning to `Cc1noc(C)c1-c1cc(-c2cccnc2)c2[nH]c(=O)n3c2c1OCC3c1ccccc1` (stereo not shown) [Example 52, 7-(3,5-Dimethylisoxazol-4-yl)-4-phenyl-9-pyridin-3-yl-4,5-dihydroimidazo[1,5,4-de][1,4]benzoxazin-2(1H)-one], the IC50 at BRD4-BD1 and on BRD4-BD2 was under 0.1 µM in each case.
Turning to `Cc1noc(C)c1-c1ccc2[nH]c(=O)n3c2c1OCC3c1cccc[n+]1[O-]` (stereo not shown) [Example 16, 7-(3,5-Dimethylisoxazol-4-yl)-4-(1-oxidopyridin-2-yl)-4,5-dihydroimidazo[1,5,4-de][1,4]benzoxazin-2(1H)-one], the IC50 on BRD4-BD1 and at BRD4-BD2 was under 0.1 µM each time.
For `Cc1noc(C)c1-c1ccc2[nH]c(=O)n3c2c1OCC3C1CCCCN1C(=O)NC(C)C` (stereo not shown) [Example 80, 2-[7-(3,5-dimethylisoxazol-4-yl)-2-oxo-1,2,4,5-tetrahydroimidazo[1,5,4-de][1,4]benzoxazin-4-yl]-N-isopropylpiperidine-1-carboxamide], the IC50 at BRD4-BD1 and at BRD4-BD2 was 1 to 10 µM each time.
